In ChEMBL document CHEMBL4190265, “Structural optimization elaborates novel potent Akt inhibitors with promising anticancer activity” (Eur J Med Chem, 2017):

Legend:
[1] = Antiproliferative activity against human Mino cells after 72 hrs by CellTiter Glo assay; format: functional, cell-based
[2] = biological target: RAC-alpha serine/threonine-protein kinase (Homo sapiens, UniProt P31749); assay: Inhibition of AKT1 (unknown origin) using biotinylated-STK as substrate after 45 mins by HTRF assay
JVM-2 = assay: Antiproliferative activity against human JVM2 cells after 72 hrs by CellTiter Glo assay; format: functional, cell-based; conditions: JVM-2, 72 h
JeKo-1 [3] = assay: Antiproliferative activity against human JeKo1 cells after 72 hrs by CellTiter Glo assay; format: functional, cell-based; conditions: JeKo-1, 72 h
Maver1 = assay: Antiproliferative activity against human Maver1 cells after 72 hrs by CellTiter Glo assay; format: functional, cell-based; conditions: Maver1, 72 h
Z-138 = assay: Antiproliferative activity against human Z138 cells after 72 hrs by CellTiter Glo assay; format: functional, cell-based; conditions: Z-138, 72 h
[4] = Antiproliferative activity against human SP49 cells after 72 hrs by CellTiter Glo assay; format: functional, cell-based
JeKo-1 [5] = assay: Induction of apoptosis in human JeKo1 cells assessed as viable cells at 1 uM after 48 hrs by Annexin V-FITC/propidium iodide double staining based flow cytometry (reference value: 91.1%); format: functional; conditions: JeKo-1, 48 h, read-out: Activity
JeKo-1 [6] = assay: Induction of apoptosis in human JeKo1 cells assessed as early apoptotic cells at 1 uM after 48 hrs by Annexin V-FITC/propidium iodide double staining based flow cytometry (reference value: 5.42%); format: functional
JeKo-1 [7] = assay: Induction of apoptosis in human JeKo1 cells assessed as viable cells at 5 uM after 48 hrs by Annexin V-FITC/propidium iodide double staining based flow cytometry (reference value: 91.1%); format: functional; conditions: JeKo-1, 48 h, read-out: Activity
JeKo-1 [8] = assay: Induction of apoptosis in human JeKo1 cells assessed as late apoptotic cells at 0.5 uM after 48 hrs by Annexin V-FITC/propidium iodide double staining based flow cytometry (reference value: 1.9%); format: functional
JeKo-1 [9] = assay: Induction of apoptosis in human JeKo1 cells assessed as necrotic cells at 0.5 uM after 48 hrs by Annexin V-FITC/propidium iodide double staining based flow cytometry (reference value: 0.81%); format: functional
JeKo-1 [10] = assay: Cell cycle arrest in human JeKo1 cells assessed as accumulation at S phase at 0.5 uM after 24 hrs by propidium iodide staining based flow cytometry (reference value: 36.8%); format: functional
JeKo-1 [11] = assay: Induction of apoptosis in human JeKo1 cells assessed as necrotic cells at 1 uM after 48 hrs by Annexin V-FITC/propidium iodide double staining based flow cytometry (reference value: 0.62%); format: functional
JeKo-1 [12] = assay: Cell cycle arrest in human JeKo1 cells assessed as accumulation at G0/G1 phase at 0.5 uM after 24 hrs by propidium iodide staining based flow cytometry (reference value: 44.8%); format: functional
JeKo-1 [13] = assay: Induction of apoptosis in human JeKo1 cells assessed as viable cells at 0.5 uM after 48 hrs by Annexin V-FITC/propidium iodide double staining based flow cytometry (reference value: 91.1%); format: functional; conditions: JeKo-1, 48 h, read-out: Activity
JeKo-1 [14] = assay: Induction of apoptosis in human JeKo1 cells assessed as early apoptotic cells at 5 uM after 48 hrs by Annexin V-FITC/propidium iodide double staining based flow cytometry (reference value: 6.18%); format: functional
JeKo-1 [15] = assay: Induction of apoptosis in human JeKo1 cells assessed as necrotic cells at 1 uM after 24 hrs by Annexin V-FITC/propidium iodide double staining based flow cytometry (reference value: 0.62%); format: functional
JeKo-1 [16] = assay: Cell cycle arrest in human JeKo1 cells assessed as accumulation at S phase at 1 uM after 24 hrs by propidium iodide staining based flow cytometry (reference value: 36.8%); format: functional
JeKo-1 [17] = assay: Induction of apoptosis in human JeKo1 cells assessed as late apoptotic cells at 1 uM after 72 hrs by Annexin V-FITC/propidium iodide double staining based flow cytometry (reference value: 2.06%); format: functional
JeKo-1 [18] = assay: Cell cycle arrest in human JeKo1 cells assessed as accumulation at G0/G1 phase at 1 uM after 24 hrs by propidium iodide staining based flow cytometry (reference value: 44.8%); format: functional
JeKo-1 [19] = assay: Cell cycle arrest in human JeKo1 cells assessed as accumulation at G2/M phase at 0.5 uM after 24 hrs by propidium iodide staining based flow cytometry (reference value: 18.4%); format: functional
JeKo-1 [20] = assay: Induction of apoptosis in human JeKo1 cells assessed as viable cells at 1 uM after 24 hrs by Annexin V-FITC/propidium iodide double staining based flow cytometry (reference value: 91.9%); format: functional; conditions: JeKo-1, 24 h, read-out: Activity
JeKo-1 [21] = assay: Induction of apoptosis in human JeKo1 cells assessed as viable cells at 1 uM after 48 hrs by Annexin V-FITC/propidium iodide double staining based flow cytometry (reference value: 91.9%); format: functional; conditions: JeKo-1, 48 h, read-out: Activity
JeKo-1 [22] = assay: Induction of apoptosis in human JeKo1 cells assessed as necrotic cells at 5 uM after 48 hrs by Annexin V-FITC/propidium iodide double staining based flow cytometry (reference value: 0.81%); format: functional
JeKo-1 [23] = assay: Cell cycle arrest in human JeKo1 cells assessed as accumulation at G2/M phase at 1 uM after 24 hrs by propidium iodide staining based flow cytometry (reference value: 18.4%); format: functional
JeKo-1 [24] = assay: Induction of apoptosis in human JeKo1 cells assessed as necrotic cells at 1 uM after 72 hrs by Annexin V-FITC/propidium iodide double staining based flow cytometry (reference value: 0.62%); format: functional
JeKo-1 [25] = assay: Induction of apoptosis in human JeKo1 cells assessed as early apoptotic cells at 1 uM after 48 hrs by Annexin V-FITC/propidium iodide double staining based flow cytometry (reference value: 6.18%); format: functional
JeKo-1 [26] = assay: Induction of apoptosis in human JeKo1 cells assessed as late apoptotic cells at 5 uM after 48 hrs by Annexin V-FITC/propidium iodide double staining based flow cytometry (reference value: 1.9%); format: functional
JeKo-1 [27] = assay: Induction of apoptosis in human JeKo1 cells assessed as viable cells at 1 uM after 72 hrs by Annexin V-FITC/propidium iodide double staining based flow cytometry (reference value: 91.9%); format: functional; conditions: JeKo-1, 72 h, read-out: Activity
JeKo-1 [28] = assay: Induction of apoptosis in human JeKo1 cells assessed as late apoptotic cells at 1 uM after 48 hrs by Annexin V-FITC/propidium iodide double staining based flow cytometry (reference value: 1.9%); format: functional
JeKo-1 [29] = assay: Induction of apoptosis in human JeKo1 cells assessed as early apoptotic cells at 0.5 uM after 48 hrs by Annexin V-FITC/propidium iodide double staining based flow cytometry (reference value: 6.18%); format: functional
JeKo-1 [30] = assay: Induction of apoptosis in human JeKo1 cells assessed as late apoptotic cells at 1 uM after 48 hrs by Annexin V-FITC/propidium iodide double staining based flow cytometry (reference value: 2.06%); format: functional
JeKo-1 [31] = assay: Induction of apoptosis in human JeKo1 cells assessed as late apoptotic cells at 1 uM after 24 hrs by Annexin V-FITC/propidium iodide double staining based flow cytometry (reference value: 2.06%); format: functional
JeKo-1 [32] = assay: Induction of apoptosis in human JeKo1 cells assessed as early apoptotic cells at 1 uM after 24 hrs by Annexin V-FITC/propidium iodide double staining based flow cytometry (reference value: 5.42%); format: functional
JeKo-1 [33] = assay: Induction of apoptosis in human JeKo1 cells assessed as necrotic cells at 1 uM after 48 hrs by Annexin V-FITC/propidium iodide double staining based flow cytometry (reference value: 0.81%); format: functional
JeKo-1 [34] = assay: Induction of apoptosis in human JeKo1 cells assessed as early apoptotic cells at 1 uM after 72 hrs by Annexin V-FITC/propidium iodide double staining based flow cytometry (reference value: 5.42%); format: functional

Sequence of RAC-alpha serine/threonine-protein kinase (P31749 whole entry): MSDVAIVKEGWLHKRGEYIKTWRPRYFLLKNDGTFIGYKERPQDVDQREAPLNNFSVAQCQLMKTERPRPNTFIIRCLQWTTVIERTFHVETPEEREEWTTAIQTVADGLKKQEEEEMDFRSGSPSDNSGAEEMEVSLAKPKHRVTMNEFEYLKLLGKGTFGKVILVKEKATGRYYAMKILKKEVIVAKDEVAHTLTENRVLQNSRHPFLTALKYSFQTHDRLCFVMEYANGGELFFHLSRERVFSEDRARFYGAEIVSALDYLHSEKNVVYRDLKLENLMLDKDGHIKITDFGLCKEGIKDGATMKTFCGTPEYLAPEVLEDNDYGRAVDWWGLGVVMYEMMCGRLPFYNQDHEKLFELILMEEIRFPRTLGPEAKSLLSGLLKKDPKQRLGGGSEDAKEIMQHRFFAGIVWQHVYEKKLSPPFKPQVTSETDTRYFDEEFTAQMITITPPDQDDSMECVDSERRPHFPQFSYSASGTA

O=C(N1CCN(c2ncnc3[nH]cc(Br)c23)CC1)C1(c2ccc(Cl)cc2)CCNCC1
IC50 [1]: 3500 nM
IC50 [2]: 1.5 nM
IC50 (JVM-2): 2300 nM
IC50 (JeKo-1 [3]): 1200 nM
IC50 (Maver1): 1800 nM
IC50 (Z-138): 1700 nM
IC50 [4]: 4700 nM

O=C(N1CCN(c2ncnc3[nH]cc(Cl)c23)CC1)C1(c2ccc(Br)cc2)CCNCC1
viability at 1 µM (JeKo-1 [5]): 49.1%
Activity (JeKo-1 [6]): 34%
viability at 5 µM (JeKo-1 [7]): 6.4%
Activity (JeKo-1 [8]): 8.31%
Activity (JeKo-1 [9]): 0.7%
Activity (JeKo-1 [10]): 21.2%
Activity (JeKo-1 [11]): 0.21%
Activity (JeKo-1 [12]): 46.1%
viability at 0.5 µM (JeKo-1 [13]): 75.6%
Activity (JeKo-1 [14]): 70.1%
Activity (JeKo-1 [15]): 0.091%
Activity (JeKo-1 [16]): 18.8%
Activity (JeKo-1 [17]): 10.7%
Activity (JeKo-1 [18]): 8.8%
IC50 [1]: 700 nM
IC50 [2]: 1.8 nM
Activity (JeKo-1 [19]): 32.7%
viability at 1 µM (JeKo-1 [20]): 69.7%
viability at 1 µM (JeKo-1 [21]): 49.1%
Activity (JeKo-1 [22]): 0.43%
Activity (JeKo-1 [23]): 72.4%
Activity (JeKo-1 [24]): 0.26%
IC50 (JVM-2): 700 nM
IC50 (JeKo-1 [3]): 300 nM
Activity (JeKo-1 [25]): 34%
Activity (JeKo-1 [26]): 23%
viability at 1 µM (JeKo-1 [27]): 35.6%
IC50 (Maver1): 300 nM
Activity (JeKo-1 [28]): 16.6%
Activity (JeKo-1 [29]): 15.4%
Activity (JeKo-1 [30]): 16.6%
IC50 (Z-138): 200 nM
Activity (JeKo-1 [31]): 20.4%
Activity (JeKo-1 [32]): 9.81%
Activity (JeKo-1 [33]): 0.21%
Activity (JeKo-1 [34]): 53.5%
IC50 [4]: 1500 nM

O=C(N1CCN(c2ncnc3[nH]ccc23)CC1)C1(c2ccc(Cl)c(Cl)c2)CCNCC1
IC50 [2]: > 40 nM

CC(C)(C)c1ccc(C2(C(=O)N3CCN(c4ncnc5[nH]ccc45)CC3)CCNCC2)cc1
IC50 [2]: > 40 nM

O=C(N1CCN(c2ncnc3[nH]ccc23)CC1)C1(c2ccc(Cl)cc2)CCNCC1
IC50 [2]: 26.5 nM

O=C(N1CCN(c2ncnc3[nH]cc(Br)c23)CC1)C1(c2cccc(Br)c2)CCNCC1
IC50 [2]: 7.6 nM

COc1ccc(C2(C(=O)N3CCN(c4ncnc5[nH]cc(Br)c45)CC3)CCNCC2)cc1
IC50 [2]: 14.1 nM

O=C(N1CCN(c2ncnc3[nH]cc(Br)c23)CC1)C1(c2ccc(Cl)c(Cl)c2)CCNCC1
IC50 [2]: 4.3 nM

CCn1c(-c2nonc2N)nc2c(C#CC(C)(C)O)ncc(OC[C@H]3CCCNC3)c21 [GSK-690693]
IC50 [1]: 20800 nM
IC50 (JVM-2): 1600 nM
IC50 (JeKo-1 [3]): 3000 nM
IC50 (Maver1): 5100 nM
IC50 (Z-138): 3100 nM
IC50 [4]: 4800 nM

COc1ccc(C2(C(=O)N3CCN(c4ncnc5[nH]ccc45)CC3)CCNCC2)cc1
IC50 [2]: 35.6 nM

O=C(N1CCN(c2ncnc3[nH]cc(Cl)c23)CC1)C1(c2ccc(Cl)c(Cl)c2)CCNCC1
IC50 [2]: 2.9 nM

O=C(N1CCN(c2ncnc3[nH]cc(Cl)c23)CC1)C1(c2cccc(Br)c2)CCNCC1
IC50 [2]: 5.6 nM

O=C(N1CCN(c2ncnc3[nH]cc(Br)c23)CC1)C1(c2ccccc2)CCNCC1
IC50 [2]: 20.3 nM

O=C(N1CCN(c2ncnc3[nH]cc(Cl)c23)CC1)C1(c2ccc(Cl)cc2)CCNCC1
IC50 [2]: 1.9 nM

O=C(N1CCN(c2ncnc3[nH]ccc23)CC1)C1(c2ccc(Br)cc2)CCNCC1
IC50 [2]: 27.1 nM

O=C(Cc1ccc(Cl)cc1)N1CCN(c2ncnc3[nH]cc(Br)c23)CC1
IC50 [1]: 18100 nM
IC50 [2]: 18 nM
IC50 (JVM-2): 9900 nM
IC50 (JeKo-1 [3]): 8700 nM
IC50 (Maver1): 18500 nM
IC50 (Z-138): 6800 nM
IC50 [4]: 7800 nM
